Entries after “also recorded” stand apart in the source; their conditions may differ. Read-outs that look alike come from different tables or passages of the source.

The values below come from article PMC8703884, “Synthesis and Biological Evaluation of S-, O- and Se-Containing Dispirooxindoles” (Molecules, 2021).

Series [1] in a line: MTT cytotoxicity test, Hek293T. It is filed as cell-based. The settings on record: human, 72 h incubation.
Series [2] relates to MCF7 breast cancer cell line. As to the kind of experiment: MTT cytotoxicity test, MCF7. The note with it: Homo sapiens, 72 h incubation. It is filed as cell-based. On the procedure:
(§1) MTT test. […] Assays were performed in triplicates.
A general note: Formazan colour is commonly taken as a measure of viable cells.

The test system of series [3] is HCT116^−/− human colon cancer cells (p53 negative). In words: MTT cytotoxicity test, HCT116 p53-/-. The settings on record: HCT-116, read-out: CC50, HCT^−/−. An excerpt:
(§2) The used models included human prostate cancer cell lines LNCaP and PC3, breast cancer cell line (MCF-7), human colon cancer cells (HCT116^+/+, p53 positive, p53^+/+ and HCT116^−/−, p53 negative, p53^−/−), human lung adenocarcinoma epithelial cell line (A549), SV40-transformed normal human lung fibroblast cells (VA13), as well as human embryonic kidney 293 cells (Hek293) stably expressing SV40 large T antigen (Hek293T). The cytotoxicity of the evaluated molecules was properly assessed using a MTT assay based on the modified approach reported by Ferrari and colleagues.
(§3) To further elucidate the dominant mode of action, we used HCT116^+/+ and HCT116^−/− cells by analogy with the paper published by Shangary and colleagues. This isogenic cell line is commonly applied to investigate the p53/MDM2-dependent mode of action.
(§4) MTT test. The MTT assay was carried out according to [35] with few modifications; 3000 Cells (for HEK293T, A549 and MCF7cell lines) or 4000 cells (for VA13 cell line) were seeded in each well of a 96-well plate. […] Assays were performed in triplicates. […] The MTT solution was then discarded and 140 µL of DMSO was added. The plates were swayed on a shaker (60 rpm) to solubilize the formazan. […] The analysis of cytotoxicity and the estimation of IC50 values were carried out with the built-in functions in the GraphPad Prism program (GraphPad Software, Inc., San Diego, CA) P53 activation.

Series [4] has as its system PC3 human prostate cancer cell line. In words: MTT cytotoxicity test, PC3. The format is cell-based. The note with it: Homo sapiens.
The subject of series [5] is LNCaP human prostate cancer cell line. As to the kind of experiment: MTT cytotoxicity test, LNCaP. The format is cell-based. The note with it: for CC50: Homo sapiens, LNCaP, read-out: CC50, LNCaP.
The subject of series [6] is A549 human lung adenocarcinoma epithelial cell line. As to the kind of experiment: MTT cytotoxicity test, A549. It is filed as cell-based. The settings on record: 72 h incubation.
The test system of series [7] is HCT116^+/+ human colon cancer cells (p53 positive). In words: MTT cytotoxicity test, HCT116 p53+/+. The note with it: for CC50: Homo sapiens, HCT-116, read-out: CC50, HCT^+/+.
From the text: as §2, §3, §4

Series [8] is described as follows: MTT cytotoxicity test, VA13. The format is cell-based. The settings on record: human, VA13 SV40-transformed normal lung fibroblast cells, 72 h incubation. As for the experimental part:
as §1

Where [9] appears, read: ratio of CC50 values of the cell line pair.

Consider `CN1CC2(NC(=S)N(Cc3ccccc3)C2=O)C2(C1)C(=O)Nc1ccc(Cl)cc12` (stereo not drawn) [Compound 4b, 5″-Chloro-1′-methyl-1-benzyl-2-thioxodispiro[imidazolidine-4,3′-pyrrolidine-4′,3″-indoline]-2″,5-dione], for which the melting point was 152 to 153 °C. Besides, the CC50 at 72 h in [1] is 9.5 ± 1.7 µM. Also, in series [2], the CC50 is 24.3 ± 2.3 µM. For the same molecule, in series [3], the CC50 turned out to be 30 ± 15.2 µM. The CC50 in [4] turned out to be 49 ± 12.7 µM. In [5] (MTT test), the CC50 was determined as 10.3 ± 1.1 µM and the “selectivity on LNCaP cells over PC3 cells” value (shortened to “selectivity on LNCaP cells”) is “moderate selectivity”. Further, the CC50 in series [6] stood at 9.1 ± 2.2 µM. The CC50 in series [7] came to 60.7 ± 13.8 µM. The CC50 at 72 h in [8] was determined as 21.4 ± 1.9 µM.
Regarding `Cc1ccc(N2C(=O)C3(CN(C)CC34C(=O)Nc3ccccc34)NC2=S)cc1` (stereo not drawn) [Compound 4i, 1′-Methyl-1-(p-tolyl)-2-thioxodispiro[imidazolidine-4,3′-pyrrolidine-4′,3″-indoline]-2″,5-dione], the melting point lay within 155 to 157 °C. In [1], this molecule registered a CC50 at 72 h greater than 100 µM. Also, the CC50 in series [2] stood at 88.2 ± 32.2 µM. Moreover, the CC50 in series [3] was greater than 100 µM. In addition, in [4], the CC50 is greater than 100 µM. Also, the CC50 in series [5] (MTT test) was greater than 100 µM. The molecule further returned a CC50 in [6] greater than 100 µM. The CC50 in series [7] is greater than 100 µM. Besides, the CC50 at 72 h in [8] was greater than 100 µM.
`C=CCN1C(=O)C2(CN(C)CC23C(=O)Nc2ccc(Cl)cc23)NC1=S` (stereo not drawn) [Compound 4d, 5″-Chloro-1′-methyl-1-allyl-2-thioxodispiro[imidazolidine-4,3′-pyrrolidine-4′,3″-indoline]-2″,5-dione] had a melting point of 141 to 142 °C. The molecule also returned a CC50 at 72 h in [1] of 11.5 ± 3 µM. In series [2], this molecule registered a CC50 of 68.4 ± 8.8 µM. Besides, in [3], the CC50 worked out at 40.1 ± 5.23 µM. Moreover, the CC50 in series [4] turned out to be 50 ± 9.1 µM. Also, in series [5] (MTT test), the CC50 amounted to 20 ± 3.6 µM and the “selectivity on LNCaP cells” value is given as “moderate selectivity”. The molecule further came in with a CC50 in [6] of 32.1 ± 6.7 µM. The CC50 in series [7] stood at 57.7 ± 18.4 µM. In series [8], this molecule showed a CC50 at 72 h of 30.8 ± 4.5 µM.
On to `C=CCN1C(=O)C2(CN(C)CC23C(=O)Nc2ccccc23)NC1=S` (stereo not drawn) [Compound 4c, 1′-Methyl-1-allyl-2-thioxodispiro[imidazolidine-4,3′-pyrrolidine-4′,3″-indoline]-2″,5-dione], for which the melting point is 281 to 283 °C (dec.). In addition, the CC50 at 72 h in [1] is 41.8 ± 12.4 µM. This molecule had a CC50 in [2] greater than 100 µM. Besides, in series [3], the CC50 was 14.3 ± 6.65 µM. Further, the CC50 in [4] is 53.1 ± 15.8 µM. Further, the CC50 in [5] (MTT test) came to 9.8 ± 3.3 µM. In series [6], the CC50 worked out at 45.9 ± 13.4 µM. For the same molecule, in series [7], the CC50 is greater than 100 µM. In series [8], the CC50 at 72 h is greater than 100 µM.
For `COc1ccc(N2C(=O)C3(CN(C)CC34C(=O)Nc3ccc(Cl)cc34)NC2=[Se])cc1` (stereo not drawn) [Compound 6f, 5″-Chloro-1-(4-methoxyphenyl)-1′-methyl-2-selenoxodispiro[imidazolidine-4,3′-pyrrolidine-4′,3″-indoline]-2″,5-dione], the melting point was 284 to 285 °C (dec.). The same molecule gave a CC50 at 72 h in series [1] of 14 ± 1.5 µM. For the same molecule, the CC50 in series [2] worked out at 20.4 ± 3.6 µM. Further, the CC50 in series [6] came to 15.8 ± 1.5 µM. The CC50 at 72 h in [8] was found to be 12.5 ± 1.5 µM.
In the case of `COc1ccc(N2C(=O)[C@@]3(CN(C)C[C@@]34C(=O)Nc3ccc(Cl)cc34)NC2=S)cc1` (racemic) [Compound 4f, 5″-Cchloro-1′-methyl-1-(4-methoxyphenyl)-2-thioxodispiro[imidazolidine-4,3′-pyrrolidine-4′,3″-indoline]-2″,5-dione], the CC50 at 72 h in series [1] was determined as 1.1 ± 0.1 µM; in series [8], 2.3 ± 0.4 µM. The CC50 is 2.3 ± 0.5 µM in series [2]; 2.35 ± 0.95 µM in series [3]; 12.6 ± 2.3 µM in [4]; 4.5 ± 0.32 µM in series [5] (MTT test); 2.8 ± 0.4 µM in series [6]; 1.95 ± 0.43 µM in [7]. For the same molecule, the “selectivity on LNCaP cells” value in [5] (MTT test) is “selective; also recorded: moderate selectivity”. Besides, the “selectivity index S for LNCaP/PC3 cells” value in series [5] (setting [9]) is given as 2.8.
As to `CCOc1ccc(N2C(=O)NC3(CN(C)CC34C(=O)Nc3ccc(Cl)cc34)C2=O)cc1` (stereo not drawn) [Compound 9h, 5″-Chloro-1-(4-ethoxyphenyl)-1′-methyldispiro[imidazolidine-4,3′-pyrrolidine-4′,3″-indoline]-2,2″,5-trione], the melting point was 273 to 274 °C.
`CN1CC2(NC(=S)N(c3ccccc3)C2=O)C2(C1)C(=O)Nc1ccc(Cl)cc12` (stereo not drawn) [Compound 4x, 5″-Chloro-1′-methyl-1-phenyl-2-thioxodispiro[imidazolidine-4,3′-pyrrolidine-4′,3″-indoline]-2″,5-dione] had a melting point of 268 to 269 °C. In addition, the CC50 at 72 h in series [1] was greater than 100 µM. Further, in series [3], the CC50 was greater than 100 µM. Also, the CC50 in series [4] was greater than 100 µM. Besides, in [5] (MTT test), the CC50 was greater than 100 µM. Moreover, in series [6], the CC50 is greater than 100 µM. Further, the CC50 in series [7] is greater than 100 µM.
As for `CN1CC2(NC(=[Se])N(c3ccc(F)c(Cl)c3)C2=O)C2(C1)C(=O)Nc1ccc(Cl)cc12` (stereo not drawn) [Compound 6r, 5″-Chloro-1-(3-chloro-4-fluorophenyl)-1′-methyl-2-selenoxodispiro[imidazolidine-4,3′-pyrrolidine-4′,3″-indoline]-2″,5-dione], the melting point is 193 to 194 °C (dec.). Moreover, in series [1], the CC50 at 72 h amounted to 11.9 ± 0.9 µM. In series [4], the CC50 is greater than 50 µM. The CC50 in series [5] was determined as 11.8 ± 1.5 µM. Further, the “CC50, LNCaP” value in [5] (MTT test) is “good activity”. In addition, the CC50 in series [6] came to 26.5 ± 5.4 µM.
Take `COc1cc([C@@H]2c3cc4c(cc3[C@@H](O[C@@H]3O[C@@H]5CO[C@@H](C)O[C@H]5[C@H](O)[C@H]3O)[C@H]3COC(=O)[C@H]23)OCO4)cc(OC)c1O` [Etoposide, reference compound]: in series [1], the CC50 at 72 h turned out to be 0.3 ± 0.1 µM. Also, the CC50 in series [2] is 2.6 ± 0.9 µM; in series [3] it was 0.85 ± 0.22 µM; in series [6] it was 0.3 ± 0.1 µM; in series [7], 0.43 ± 0.12 µM. For the same molecule, in series [7] (setting [9]), the “selectivity S against HCT116^+/+ over HCT116^−/−” value is on record as 1.97.
`CN1CC2(NC(=S)N(c3ccc(F)cc3)C2=O)C2(C1)C(=O)Nc1ccc(Cl)cc12` (stereo not drawn) [Compound 4n, 5″-Chloro-1′-methyl-1-(4-fluorophenyl)-2-thioxodispiro[imidazolidine-4,3′-pyrrolidine-4′,3″-indoline]-2″,5-dione]: the melting point was 273 to 274 °C. The same molecule yielded a CC50 at 72 h in series [1] of 53 ± 9.5 µM. For the same molecule, the CC50 in series [3] is greater than 100 µM. The same molecule had a CC50 in series [4] greater than 100 µM. In addition, the CC50 in series [5] (MTT test) is greater than 100 µM. Also, in series [6], the CC50 is greater than 100 µM. Also, the CC50 in [7] is greater than 100 µM.
Consider `CN1CC2(NC(=S)N(CCCN3CCOCC3)C2=O)C2(C1)C(=O)Nc1ccc(Cl)cc12` (stereo not drawn) [Compound 4v, 5″-Chloro-1′-methyl-1-(3-morpholinopropyl)-2-thioxodispiro[imidazolidine-4,3′-pyrrolidine-4′,3″-indoline]-2″,5-dione], for which the melting point lay within 224 to 225 °C. Moreover, in series [1], the CC50 at 72 h worked out at 103 ± 27.7 µM. Further, in [3], the CC50 is greater than 100 µM. Also, the CC50 in series [4] was greater than 100 µM. For the same molecule, in series [5] (MTT test), the CC50 was greater than 100 µM. Moreover, in series [6], the CC50 is greater than 100 µM. For the same molecule, in series [7], the CC50 was greater than 100 µM.

As a reminder, the melting point is the temperature of the solid-liquid transition.
